Assay results taken from paper PMC3915329 (Journal of Ginseng Research, 2013).

These compounds were tested against T1, protein tyrosine phosphatase 1B (PTP1B) (Homo sapiens, UniProt P18031) (assay: Inhibitory activity against PTP1B assay).
T1 sequence (P18031 1-435): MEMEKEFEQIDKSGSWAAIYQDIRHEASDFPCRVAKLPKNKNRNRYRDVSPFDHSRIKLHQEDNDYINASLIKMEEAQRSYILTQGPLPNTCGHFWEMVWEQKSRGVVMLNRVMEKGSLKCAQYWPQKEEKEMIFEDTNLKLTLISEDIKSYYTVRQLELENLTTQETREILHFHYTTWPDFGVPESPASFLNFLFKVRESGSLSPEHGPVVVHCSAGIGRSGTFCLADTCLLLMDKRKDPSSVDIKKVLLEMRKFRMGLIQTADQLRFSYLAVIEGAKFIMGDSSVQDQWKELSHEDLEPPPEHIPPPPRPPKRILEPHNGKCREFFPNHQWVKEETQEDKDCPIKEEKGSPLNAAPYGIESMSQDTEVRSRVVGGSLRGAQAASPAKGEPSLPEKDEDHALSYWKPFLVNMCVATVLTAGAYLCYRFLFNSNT
Assay type: biochemical
`CC(C)=CCC[C@](C)(O[C@@H]1O[C@H](CO)[C@@H](O)[C@H](O)[C@H]1O)[C@H]1CC[C@]2(C)[C@@H]1[C@H](O)C[C@@H]1[C@@]3(C)CC[C@H](O[C@@H]4O[C@H](CO)[C@@H](O)[C@H](O)[C@H]4O[C@@H]4O[C@H](CO)[C@@H](O)[C@H](O)[C@H]4O)C(C)(C)[C@@H]3CC[C@]12C` [Compound 9, ginsenoside-Rd] was tested, and the IC50 was > 100 µM. For `CC(C)=CCC[C@](C)(O[C@@H]1O[C@H](CO[C@@H]2O[C@H](CO)[C@@H](O)[C@H](O)[C@H]2O)[C@@H](O)[C@H](O)[C@H]1O)[C@H]1CC[C@]2(C)[C@@H]1[C@H](O)C[C@@H]1[C@@]3(C)CC[C@H](O[C@@H]4O[C@H](CO)[C@@H](O)[C@H](O)[C@H]4O[C@@H]4O[C@H](CO)[C@@H](O)[C@H](O)[C@H]4O)C(C)(C)[C@@H]3CC[C@]12C` [Compound 5, ginsenoside-Rb1], the IC50 was > 100 µM. With `CC1(C)CCC[C@](C)([C@H]2CC[C@]3(C)[C@@H]2[C@H](O)C[C@@H]2[C@@]4(C)CC[C@H](O)C(C)(C)[C@@H]4CC[C@]23C)O1` [Compound 18, panaxadiol] the IC50 was > 100 µM. In the case of `CC(C)=CCC[C@](C)(O[C@@H]1O[C@H](CO[C@@H]2O[C@@H](CO)[C@H](O)[C@H]2O)[C@@H](O)[C@H](O)[C@H]1O)[C@H]1CC[C@]2(C)[C@@H]1[C@H](O)C[C@@H]1[C@@]3(C)CC[C@H](O[C@@H]4O[C@H](CO)[C@@H](O)[C@H](O)[C@H]4O[C@@H]4O[C@H](CO)[C@@H](O)[C@H](O)[C@H]4O)C(C)(C)[C@@H]3CC[C@]12C` [Compound 8, ginsenoside-Rc], the IC50 is reported as > 100 µM. In the case of `CC(C)=CCC[C@](C)(O[C@@H]1O[C@H](CO)[C@@H](O)[C@H](O)[C@H]1O)[C@H]1CC[C@]2(C)[C@@H]1[C@H](O)C[C@@H]1[C@@]3(C)CC[C@H](O)C(C)(C)[C@@H]3[C@@H](O)C[C@]12C` [Compound 14, ginsenoside-F1], the IC50 is reported as > 100 µM.
